Source: patent US8183236B2, “Compounds with HIV-1 integrase inhibitory activity and use thereof as anti-HIV/AIDS therapeutics” (University of Southern California, priority 2007, dated 2012)

Columns and labels:
[1] = target: T1, HIV-1 integrase (wild-type IN) (Human immunodeficiency virus type 1 group M subtype B, UniProt P12497); assay: HIV-1 integrase 3′-processing assay (32P-labeled 21-mer, gel); format: biochemical
Text: (§1) The oligonucleotides 21 top, 5′-[…]-3′ (SEQ ID NO:1) and 21 bot, 5′-[…]-3′ (SEQ ID NO:2) were purchased from Norris Cancer Center Core Facility (University of Southern California) and purified by UV shadowing on polyacrylamide gel. To analyze the extent of 3′-processing and strand transfer using 5′-end labeled substrates, 21 top was 5′-end labeled using T4 polynucleotide kinase (Epicentre, Madison, Wis.) and γ [^32P]-ATP (Amersham Biosciences or ICN). The kinase was heat-inactivated and 21 bot was added in 1.5-molar excess. The mixture was heated at 95° C., allowed to cool slowly to room temperature, and run through a spin 25 mini-column (USA Scientific) to separate annealed double-stranded oligonucleotide from unincorporated material.
(§2) To determine the extent of 3′-processing and strand transfer, wild-type IN was preincubated at a final concentration of 200 nM with the inhibitor in reaction buffer (50 mM NaCl, 1 mM HEPES, pH 7.5, 50 μM EDTA, 50 μM dithiothreitol, 10% glycerol (w/v), 7.5 mM MnCl2, 0.1 mg/ml bovine serum albumin, 10 mM 2-mercaptoethanol, 10% dimethyl sulfoxide, and 25 mM MOPS, pH 7.2) at 30° C. for 30 min. Then, 20 nM of the 5′-end ^32P-labeled linear oligonucleotide substrate was added, and incubation was continued for an additional one hour. Reactions were quenched by the addition of an equal volume (16 μl) of loading dye (98% deionized formamide, 10 mM EDTA, 0.025% xylene cyanol and 0.025% bromophenol blue). An aliquot (5 μl) was electrophoresed on a denaturing 20% polyacrylamide gel (0.09 M tris-borate pH 8.3, 2 mM EDTA, 20% acrylamide, 8M urea).
(§3) Gels were dried, exposed in a PhosphorImager cassette, and analyzed using a Typhoon 8610 Variable Mode Imager (Amersham Biosciences) and quantitated using ImageQuant 5.2. Percent inhibition (% I) was calculated using the following equation: %I=100×[1−(D−C)/(N−C)]
(§4) where C, N, and D are the fractions of 21-mer substrate converted to 19-mer (3′-processing product) or strand transfer products for DNA alone, DNA plus IN, and IN plus drug, respectively. The IC50 values were determined by plotting the logarithm of drug concentration versus percent inhibition to obtain concentration that produced 50% inhibition. […]

[2] = target: T1, HIV-1 integrase (wild-type IN); assay: HIV-1 integrase strand transfer assay (32P-labeled 21-mer, gel); format: biochemical
Text: as §1, §2, §3, §4

[3] = unit inferred, read-out: IN inhibition activity 3′-processing
[4] = unit inferred, read-out: IN inhibition activity Strand transfer
[5] = wild-type IN 200 nM, 7.5 mM MnCl2, read-out: Inhibition of IN Catalytic Activities IC50 (μM) 3′-processing
[6] = wild-type IN 200 nM, 7.5 mM MnCl2, read-out: Inhibition of IN Catalytic Activities IC50 (μM) Strand Transfer
[7] = unit inferred, read-out: HIV-1 IN Inhibitory Activities 3′-processing
[8] = unit inferred, read-out: HIV-1 IN Inhibitory Activities Strand transfer

SMILES	IC50 [1, 3] [µM]	IC50 [2, 4] [µM]	IC50 [1, 5] [µM]	IC50 [2, 6] [µM]	IC50 [1, 7] [µM]	IC50 [2, 8] [µM]
O=C(O)c1cccc(-c2ccc(/C=N/N(c3ccccc3)c3ccccc3)o2)c1 [AV15A27]	42 ± 24	26 ± 12				
O=C(O)c1ccc(-c2ccc(/C=N/Nc3nc(Nc4ccccc4)nc(Nc4ccccc4)n3)o2)cc1O [AV15A28]	> 100	> 100				
N#C/C(=C\c1ccc(-c2ccc(C(=O)O)c(O)c2)o1)c1nc2ccccc2[nH]1 [AV15A31]	34	24				
Cc1cc2nc3s/c(=C\c4ccc(-c5cccc(C(=O)O)c5)o4)c(=O)n3c2cc1C [AV15A32]	> 100	> 100				
CC(C)(C)c1ccc(OCC(=O)N/N=C/c2ccc(-c3cccc(C(=O)O)c3)o2)cc1 [AV15A35]	> 100	86				
CC(C)(C)c1ccc(C(=O)N/N=C/c2ccc(-c3cccc(C(=O)O)c3)o2)cc1 [AV15A36]	> 100	56 ± 22				
Cc1nnc(N/N=C/c2ccc(-c3ccccc3C(=O)O)o2)n1N [AV15A37]	> 100	> 100				
COc1cc(C(=O)N/N=C/c2ccc(-c3cccc(C(=O)O)c3)o2)cc(OC)c1OC [AV15A38]	> 100	49 ± 12				
Clc1ccc(-c2ccc(/C=N/Nc3nc(Nc4ccccc4)nc(Nc4ccccc4)n3)o2)cc1 [AV15A39]	> 100	> 100				
O=C(N/N=C/c1ccc(-c2ccc(Cl)c(C(=O)O)c2)o1)c1ccncc1 [AV15A40]	90 ± 18	46 ± 23				
O=C(N/N=C/c1ccc(-c2ccc(Cl)c(C(=O)O)c2)o1)c1ccc(F)cc1 [AV15A41]	> 100	> 100				
O=C(O)c1cccc(-c2ccc(/C=N/Nc3nc4ccccc4s3)o2)c1 [AV15A43]	63 ± 7	24 ± 11				
CC1=C(C#N)c2nc(N)c(C#N)c(C)c2/C1=C/c1ccc(-c2ccc(C(=O)O)c(Cl)c2)o1 [AV15A44]	> 100	68 ± 22				
CC1=C(C#N)c2nc(N)c(C#N)c(C)c2/C1=C/c1ccc(-c2ccccc2C(=O)O)o1 [AV15A45]	91 ± 16	39				
COC(=O)c1ccccc1-c1ccc(/C=C(\C#N)c2nc3ccccc3[nH]2)o1 [AV15A46]	> 100	> 100				
O=C(Cc1ccc(F)cc1)N/N=C/c1ccc(-c2ccc(Cl)c(C(=O)O)c2)o1 [AV15A47]	> 100	> 100				
CC1=C(C#N)c2nc(N)c(C#N)c(C)c2/C1=C/c1ccc(-c2ccc(F)cc2)o1 [AV15A48]	> 100	> 100				
CC1=C(C#N)c2nc(N)c(C#N)c(C)c2/C1=C/c1ccc(-c2ccccc2C(=O)O)o1 [AV15A54]	> 100	> 100				
O=C(O)c1cccc(-c2ccc(/C=N/Nc3nc4nonc4nc3Nc3ccc(F)cc3)o2)c1 [AV30]	10 ± 3	4 ± 1	10	4		
CC(C)(C)c1ccc(C2C(C(=O)c3ccc(F)cc3)=C(O)C(=O)N2c2nncs2)cc1 (stereo not shown) [Compound M28A2]	64 ± 28	43 ± 8				
Cc1ccc(C(=O)C2=C(O)C(=O)N(c3nccs3)C2c2ccc(Cl)cc2)cc1 (stereo not shown) [Compound M28A6]	56 ± 10	39 ± 3				
Cc1ccc(C(=O)C2=C(O)C(=O)N(c3nccs3)C2c2ccc(F)cc2)cc1 (stereo not shown) [Compound M28A7]	> 100	78 ± 10				
O=C(C1=C(O)C(=O)N(c2nc3ccccc3s2)C1c1ccc2c(c1)OCO2)c1ccccc1 (stereo not shown) [Compound M28A8]	57 ± 10	21 ± 10				
CCOC(=O)c1sc(N2C(=O)C(O)=C(C(=O)c3ccccc3)C2c2ccc(F)cc2)nc1C (stereo not shown) [Compound M28A10]	44 ± 4	21 ± 4				
CCOc1ccc(C(=O)C2=C(O)C(=O)N(c3nccs3)C2c2ccc(OC)cc2)cc1 (stereo not shown) [Compound M28A11]	> 100	90 ± 17				
CCOC(=O)c1sc(N2C(=O)C(O)=C(C(=O)c3ccc(C)cc3)C2c2ccc(F)cc2)nc1C (stereo not shown) [Compound M28A18]	> 100	33 ± 25				

SMILES	IC50 [1, 3] [µM]	IC50 [2, 4] [µM]	IC50 [1, 5] [µM]	IC50 [2, 6] [µM]	IC50 [1, 7] [µM]	IC50 [2, 8] [µM]
O=C(C1=C(O)C(=O)N(c2nc3ccccc3s2)C1c1cccnc1)c1ccc(Cl)cc1 (stereo not shown) [Compound M28A21]	> 100	90 ± 10				
O=C(C1=C(O)C(=O)N(c2nc3ccccc3s2)C1c1ccccn1)c1ccc(Cl)cc1 (stereo not shown) [Compound M28A22]	> 100	83 ± 12				
N=C1S/C(=C/c2ccc(-c3ccccc3C(=O)O)o2)C(=O)N1c1ccc2c(c1)OCO2 [Compound T36]	12 ± 6	6.5 ± 1				
O=C(O)CCCCCN1C(=O)C(O)=C(C(=O)c2ccc(Cl)cc2)C1c1ccc2c(c1)OCO2 (stereo not shown) [Compound T38]	25	20			25	20
O=C(Cc1ccccc1)Nc1cc(C(=O)O)c(NC(=O)Cc2ccccc2)cc1C(=O)O [Compound X7]			9	7		
O=C(O)c1cc(NC(=O)c2cccc3ccccc23)c(C(=O)O)cc1NC(=O)c1cccc2ccccc12 [Compound X8]			28	21		
COc1ccc(C=C2SC(=S)N(CCC(=O)Nc3cccc(C(=O)O)c3)C2=O)cc1 [Compound X26]			> 100	> 100		
CC(=O)C1=C(O)C(=O)N(CC(=O)O)C1c1ccc(Br)cc1 (stereo not shown) [Compound X36]					> 100	> 100
Cc1ccc(C2C(C(=O)c3ccc(Cl)cc3)=C(O)C(=O)N2CC(=O)O)cc1 (stereo not shown) [Compound X81]	84 ± 23	69 ± 36			84	69
CCOC(=O)N1CCN(C(=O)CCN2C(=O)/C(=C/c3ccc(OC)c(OC)c3)SC2=S)CC1 [Compound X90]			> 100	> 100		
CCc1ccc(C=C2SC(=S)N(CC(=O)Nc3cccc(C(=O)O)c3)C2=O)cc1 [Compound X91]			> 100	> 100		
O=C(CCN1C(=O)C(=Cc2ccc3c(c2)OCO3)SC1=S)Nc1ccc(O)c(C(=O)O)c1 [Compound X94]			15 ± 10	17 ± 11		
CCOc1ccc(C=C2SC(=S)N(CCC(=O)Nc3cccc(C(=O)O)c3)C2=O)cc1 [Compound X95]			93 ± 12	> 100		
Cc1ccc(C=C2SC(=S)N(CC(=O)Nc3cccc(C(=O)O)c3)C2=O)cc1 [Compound X97]			98 ± 4	> 100		
O=C(CN1C(=O)/C(=C2\SC(=S)N(CC(=O)Nc3ccc(C(=O)O)cc3)C2=O)SC1=S)Nc1ccc(C(=O)O)cc1 [Compound X102]			59 ± 31	75		
O=C(CN1C(=O)/C(=C2\SC(=S)N(CC(=O)Nc3ccc(O)cc3)C2=O)SC1=S)Nc1ccc(O)cc1 [Compound X103]			59 ± 37	69		
COc1cc(C(=O)Nc2ccc(O)c(C(=O)O)c2)cc(OC)c1OC [Compound X108]			> 100	> 100		
Cc1ccc(/C=C2\SC(=S)N(CCC(=O)Nc3ccc(S(=O)(=O)Nc4nccs4)cc3)C2=O)cc1 [Compound X124]			83 ± 21	44 ± 16		
O=C(O)c1ccc(S(=O)(=O)c2ccc3c(c2)C(=O)N(c2ccc(O)c(C(=O)O)c2)C3=O)cc1 [Compound X125]			66 ± 6	44 ± 4		
Cc1ccc2[nH]c(/C(C#N)=C\c3ccc(-c4ccc(C(=O)O)c(O)c4)o3)nc2c1 [Compound X132]			16 ± 5	8 ± 1		
COc1ccc2oc(=O)c(-c3csc(N/N=C/c4ccccc4O)n3)cc2c1 [Compound X143]					30	10
COc1ccc2oc(=O)c(-c3csc(N/N=C/c4ccco4)n3)cc2c1 [Compound X144]					78	29
Cc1ccc(C(=O)C2=C(O)C(=O)N(CCCn3ccnc3)C2c2ccc(Cl)cc2)cc1 (stereo not shown) [Compound X155]	93 ± 12	67 ± 28			93	67
O=C(CCCN1C(=O)C(=Cc2cccs2)SC1=S)Nc1ccc(O)c(C(=O)O)c1 [Compound X169]			44 ± 20	35 ± 16		
CCc1ccc(C=C2SC(=S)N(CCC(=O)Nc3ccc(O)c(C(=O)O)c3)C2=O)cc1 [Compound X170]			15 ± 3	11 ± 5		
COc1cc(C=C2SC(=S)N(CC(=O)Nc3cc(Cl)ccc3O)C2=O)cc(OC)c1OC [Compound X171]			32 ± 11	17 ± 2		
